Among the data in ChEMBL document CHEMBL4130459, “3,5-Dimethylorsellinic Acid Derived Meroterpenoids from Penicillium chrysogenum MT-12, an Endophytic Fungus Isolated from Huperzia serrata” (J Nat Prod, 2017) are Activity, IC50 and inhibition values, retold here.

Data set [1] concerns RAW264.7. As to the kind of experiment: Cytotoxicity against mouse RAW264.7 cells by MTT assay. In kind it is cell-based. For orientation: Tetrazolium assays rely on reduction of a dye to a coloured formazan, in cell work by metabolically active cells.
Data set [2] concerns RAW264.7. As to the kind of experiment: Inhibition of LPS-induced nitric oxide production in mouse RAW264.7 cells after 24 hrs by Griess assay. The format is functional, cell-based. As to conditions: RAW264.7, 24 h.
Data set [3] concerns RAW264.7. Description: Inhibition of LPS-induced nitric oxide production in mouse RAW264.7 cells at 80 uM after 24 hrs by Griess assay relative to control. The format is functional. The conditions noted are these: RAW264.7, 24 h. In general terms: Nitrite, measured by Griess reagent, commonly stands in for NO production.

Structures are written as SMILES. Bounds are passed on as bounds.

The IC50 is the concentration that inhibits the measured activity by half. A high value points to a need for much substance. For `COC(=O)[C@]12C(=O)[C@@H](C)O[C@@H]3OC(=O)[C@](C)(C[C@@H]4[C@]1(C)CC=C1C(=CC(=O)OC1(C)C)[C@@]4(C)O)[C@@H]32`, in the data set with RAW264.7 [1], the Activity entry is given as “Non-Toxic”. In addition, the midpoint of inhibition in the data set on RAW264.7 [2], the IC50, lay at 78.2 µM.
What is called inhibition is the share of the control response that was lost under treatment. Low values mean little suppression, high ones strong suppression. In the data set on RAW264.7 [3], `C[C@H]1OC(=O)[C@@]23[C@@H]4[C@H]5OC(=O)[C@]4(C)C[C@@H]4[C@]2(C)[C@H](C=C2C(=CC(=O)OC2(C)C)[C@@]42CO2)O[C@@]13O5` registered an inhibition at 80 µM below 50%.
In the case of `COC(=O)[C@]1(C)O[C@H]2OC(=O)[C@@H]3[C@H]2[C@@](C)(C[C@H]2C(C)=C4CC(=O)OC(C)(C)C4=CC[C@]32C)C1=O`, the inhibition at 80 µM in the data set on RAW264.7 [3] is below 50%.
In the case of `C[C@H]1O[C@@H]2OC(=O)[C@]3(C)C[C@@H]4[C@@]5(C)C(=C1O[C@H]5C=C1C(=CC(=O)OC1(C)C)[C@@]41CO1)[C@]23O`, in the data set on RAW264.7 [1], the Activity result is listed as “Non-Toxic”. Also, in the data set on RAW264.7 [2], 24 µM corresponded to half-maximal inhibition (IC50).
Compound `COC(=O)[C@]12C[C@@](C)(O)C(=O)[C@](C)(C[C@H]3C(C)=C4CC(=O)OC(C)(C)C4=CC[C@@]31C)[C@]21CO1` returned an inhibition at 80 µM with RAW264.7 [3] below 50%.
On the same count and under the same terms, under `C[C@H]1O[C@@H]2OC(=O)[C@]3(C)C[C@@H]4[C@@]5(C)C(=C1O[C@H]5C=C1C(=CC(=O)OC1(C)C)[C@@]41CO1)[C@H]23` stands below 50%; under `COC(=O)[C@]12C(=O)[C@@H](C)O[C@@H]3OC(=O)[C@](C)(C[C@H]4[C@]5(CO5)C5=CC(=O)OC(C)(C)[C@]56O[C@@H]6C[C@@]41C)[C@@H]32`, below 50%; under `COC(=O)[C@]12C(=O)[C@@H](C)O[C@@H]3OC(=O)[C@](C)(C[C@H]4C(C)=C5CC(=O)OC(C)(C)C5=CC[C@@]41C)[C@@H]32`, below 50%.
On to `C[C@@H]1O[C@H]2OC(=O)[C@@]3(C)C[C@H]4[C@@](C)(C(=O)C=C5C(=CC(=O)OC5(C)C)[C@]45CO5)[C@@H](C1=O)[C@@]23O`, for which the Activity entry in the data set on RAW264.7 [1] is reported as “Non-Toxic”. In addition, in the data set on RAW264.7 [2], the IC50 worked out at 12.7 µM.
With `COC(=O)[C@]12C(=O)[C@H](C)O[C@@H]3OC(=O)[C@](C)(C[C@H]4[C@]5(CO5)C5=CC(=O)OC(C)(C)C5=CC[C@@]41C)[C@@H]32` [BERKELEYACETAL B], in the data set with RAW264.7 [3], the inhibition at 80 µM is below 50%.
For the compound `C[C@@H]1O[C@@H]2OC(=O)[C@]3(C)C[C@@H]4[C@](C)(C(=O)C=C5C(=CC(=O)OC5(C)C)[C@@]45CO5)[C@H](C1=O)[C@H]23` [BERKELEYACETAL C], the Activity result in the data set on RAW264.7 [1] was “Non-Toxic”. For the same compound, the IC50 in the data set with RAW264.7 [2] came to 4.3 µM.
In the data set on RAW264.7 [3], `C=C1[C@@]2(C)C[C@H]3C(C)=C4CC(=O)OC(C)(C)C4=CC[C@]3(C)[C@]1(C(=O)OC)C(=O)[C@@](C)(O)C2=O` [BERKELEYDIONE] yielded an inhibition at 80 µM below 50%.
As for `C=C1[C@@]2(C)C[C@@H]3[C@](C)(CC=C4C(C)(C)OC(=O)CC[C@]43C)[C@]1(C(=O)OC)C(=O)[C@@](C)(O)C2=O` [BERKELEYONE B], in the data set on RAW264.7 [3], the inhibition at 80 µM is below 50%.
`COc1ccc2c(c1)c(CC(=O)O)c(C)n2C(=O)c1ccc(Cl)cc1` [INDOMETHACIN] displayed an IC50 with RAW264.7 [2] of 33.6 µM.
